Data on two compounds can be found in US20150337056A1, “Method for Immediately Terminating Radical Polymerizations, Inhibitor Solution, and Use Thereof” (Allessa GmbH, priority 2013, published 2015).

For data set [1] the following is noted: solutions in N-alkylpyrrolidones (N-methylpyrrolidone, N-ethylpyrrolidone); cited from earlier work.
Data set [2] can be described thus: Solubility of phenothiazine in conventional organic solvents. Type of data set: physicochemical. The text has this: Only in the N-methylpyrrolidone already mentioned and in the chemically and toxicologically related dimethylformamide could concentrated solutions of 30 percent by weight or more be prepared.
Tetrahydrofuran and acetone could also be identified as good solvents. Unfortunately these solvents have low boiling points and flashpoints which renders transport, storage and handling of the solutions more difficult.

Data set [3] in a line: Solubility and low-temperature stability of inhibitors in (poly)alkylene glycols.

Turning to `COc1ccc(O)cc1` [MEHQ, hydroquinone monomethyl ether], the “low temperature down to which solutions are stable” value in data set [1] was −11 °C.

`c1ccc2c(c1)Nc1ccccc1S2` [phenothiazine]: the “concentrated solutions that could be prepared” value in data set [2] (in N-methylpyrrolidone and in dimethylformamide) is at least 30 percent by weight. Moreover, the solubility in data set [2] (in methanol, ethanol, isopropanol, toluene, cyclohexane or n-hexane) was 2-3 percent by weight. Moreover, in data set [2] (tetrahydrofuran and acetone), the “solvent quality for phenothiazine” value is on record as “good solvents”. For the same compound, the “low temperature down to which solutions are stable” value in data set [1] was −11 °C. The “temperature dependence of solubility” value in data set [3] (in (poly)alkylene glycols, between −20° C. and +20° C., FIG. 1) is recorded as “virtually independent of the temperature”. In addition, in data set [3] (in poly(alkylene) glycol(s)), the “solubility in poly(alkylene) glycol(s)” value is given as “readily soluble” and the “temperature down to which stable solutions are formed” value is −25 °C.
